Results reported in patent US11400019B2, “Sustained release drug delivery systems with reduced impurities and related methods” (DURECT CORPORATION, priority 2020, dated 2022).
Where a name gives a salt, the structure may show the parent alone.

Assays:
[1] = system: patients undergoing elective arthroscopic shoulder surgery; experiment: Example 13 trial: pain intensity and opioid rescue after arthroscopic shoulder surgery; type: in vivo, human
Procedure: Patients were screened 1 to 14 days before surgery at which time informed consent was obtained. Surgery was performed and the trial drug administered on Day 0. The trial was planned to be divided into two sequential cohorts, each with three treatment groups (a, b and c).
All patients received paracetamol (4 grams/day; 2 grams/day for body weight <66 kg for the first 72 hours) as background treatment. In case sufficient pain relief was not obtained, patients were allowed rescue medication in the form of morphine administered intravenously or orally, which consisted of oral morphine 10 mg at 1-hour intervals or, if unable to tolerate orally intake, intravenous (IV) morphine […] at 5-minute intervals. After 72 hours, subjects were allowed paracetamol and oral morphine on an as-needed basis. Patients recorded pain intensity as well as rescue medication in an electronic diary (eDiary).
Primary: The study had two primary endpoints. […] For the primary endpoints to be met, […] of PI on movement compared to placebo as well as superiority in total use of opioid analgesia needed to be shown. PI “on movement” reported on the NRS scale was summarized by treatment group and time, using descriptive statistics for continuous variables.
Time to first opioid rescue medication usage was defined as the duration between time of trial drug administration and the time of first opioid use

[2] = Example 13 trial: total and free bupivacaine plasma pharmacokinetics; conditions: human, in vivo
Procedure: Additionally, alpha 1 acid glycoprotein (AAG) plasma concentrations were measured in these two groups for correlation with free bupivacaine concentrations.
Using non-compartmental methods the following PK parameters were calculated from the plasma concentrations of each compound: area under the plasma concentration vs. time curve until the last measured concentration (AUCt), area under the plasma concentration vs. time curve extrapolated until infinity (AUCinf), the maximum concentration (Cmax), the time of its occurrence (tmax) and the apparent terminal elimination half-life (t1/2). […] The average […] of bupivacaine was approximately […]; free bupivacaine plasma concentrations generally paralleled those of total bupivacaine. There was a large interindividual variability of Cmax of both total and free bupivacaine. […] Note: Table 13.5 presents Geometric mean, ±68th percentile for Cmax rather than absolute min, max.

[3] = system: patients undergoing elective arthroscopic shoulder surgery; experiment: Example 13 trial: safety; type: in vivo, human; conditions: safety population
Source text: Pharmacokinetic/pharmacodynamic (PK/PD) relationships were to be assessed as part of central nervous system (CNS) toxicity monitoring and cardiac monitoring. For patients not selected for PK-profiling, if a cardiac or CNS event occurred that met the criteria for a serious adverse event (SAE) or a severe non-SAE, a blood sample for PK analysis was to be taken as close to the event as possible.
The incidence of adverse events (AEs); the incidence of bupivacaine-related CNS side effects; clinical laboratory tests; vital signs; 12-lead ECGs; and physical examinations.
Evaluation by the investigator of wound healing and tissue conditions at the surgical wound on Days 7 and 14, and at the 6-month follow-up visit. An MRI of the shoulder as well as a functionality assessment of the shoulder using the Constant-Murley score were to be performed at the 6-month follow-up visit.

[4] = system: patients undergoing laparotomy, laparoscopic cholecystectomy or laparoscopically-assisted colectomy; experiment: Example 17 phase 3 trial: pain intensity and opioid use in general surgical procedures; type: in vivo, human; conditions: for Total Morphine-equivalent Opioid Medication Use, MEDD 0-72 hours, Median (Q1, Q3) / Repeated Measures Pain Intensity on Movement, All Timepoints 0-72 hr, LS Mean (SE): ITT; for Pain Intensity on Movement AUC 0-24 hours, LS Mean (SE) / Pain Intensity on Movement AUC 0-48 hours, LS Mean (SE) / Pain Intensity on Movement AUC 0-72 hours, LS Mean (SE) / Pain Intensity on Movement AUC 24-48 hours, LS Mean (SE) / Pain Intensity on Movement AUC 48-72 hours, LS Mean (SE): Log Pad and Opioid Pain Scores; for Repeated Measures Pain Intensity on Movement, All Timepoints 0-72 hr, LS Mean (SE): LogPad Scores Only
[5] = system: patients undergoing general surgical procedures; experiment: Example 17 trial: safety including Holter monitoring; type: in vivo, human; conditions: Safety Population
Source text: Patient safety was carefully monitored throughout the trial with traditional assessments of AEs, vital signs, routine laboratory testing, and Holter monitoring (i.e., continuous recording of electrocardiogram) for 3 days after dosing. Special attention was given to cardiovascular and neurological AE, as bupivacaine toxic effects are manifest in those two body systems. In addition, special assessments were done to monitor surgical wound condition and healing over the 30 days of the trial.

[6] = LOCF, ITT population, hours post-surgery
[7] = Cohort 2 (Laparoscopic Cholecystectomy)

Compound: CCCCN1CCCCC1C(=O)Nc1c(C)cccc1C (centres unmarked) [bupivacaine HCl, bupivacaine hydrochloride]
- Total IV morphine equivalent dose of opioid rescue medication, Median ([1]; 0-72 hours after surgery, ITT population): 8.0 mg
- median cumulative IV morphine-equivalent dose of opioids 0 to 72 hours ([1]; Formulation A 5 mL (660 mg) or bupivacaine HCl 20 mL (50 mg) subacromial, ITT): 8.0 mg
- Pain intensity at rest normalized AUC 1-72 hours, Mean (SD) ([1]; ITT population): 2.33 (1.76)
- Time to first use of opioid rescue medication, Median (95% CI) ([1]; ITT population, Kaplan-Meier estimates): 1.4 (1.0, 4.1) hours
- Pain intensity on movement, mean AUC (1-24) [1, 6]: 5.82
- Pain intensity on movement, mean AUC (1-48) [1, 6]: 5.56
- Pain intensity on movement, mean AUC (1-72) [1, 6]: 5.16
- Pain intensity on movement, mean AUC (24-48) [1, 6]: 5.31
- Pain intensity on movement, mean AUC (48-72) [1, 6]: 4.38
- median time to first use of opioid rescue medication ([1]; single subacromial dose, ITT): 1.4 h
- percentage of subjects opioid free during 72 hours after surgery ([1]; single subacromial dose, ITT): 27.6%
- Tmax [2]: 1.03 h
- t1/2, mean [2]: 6.65 h
- tmax median [2]: 1.03 h
- half-life ([2]; t1/2, mean): 5.93 h
- All TEAEs, % of patients [3]: 37.9%
- All TEAEs, n (patients with at least one event) [3]: 11
- TEAE Alanine aminotransferase increased, % of patients [3]: 0.0%
- TEAE Cardiac disorders, % of patients [3]: 10.3%
- TEAE Gastrointestinal disorders, % of patients [3]: 3.4%
- TEAE General disorders and administration site conditions, % of patients [3]: 0.0%
- TEAE Headache, % of patients [3]: 3.4%
- TEAE Injury, poisoning and procedural complications, % of patients [3]: 0.0%
- TEAE Investigations, % of patients [3]: 6.9%
- TEAE Musculoskeletal and connective tissue disorders, % of patients [3]: 6.9%
- TEAE Musculoskeletal pain, % of patients [3]: 6.9%
- TEAE Nausea, % of patients [3]: 3.4%
- TEAE Nervous system disorders, % of patients [3]: 13.8%
- TEAE Respiratory, thoracic and mediastinal disorders, % of patients [3]: 6.9%
- TEAE Skin and subcutaneous tissue disorders, % of patients [3]: 6.9%
- Total Morphine-equivalent Opioid Medication Use, MEDD 0-72 hours, Median (Q1, Q3) ([4]; Cohort 1 (Laparotomy)): 63.0 (34.0, 152.0) mg
- Pain Intensity on Movement AUC 0-24 hours, LS Mean (SE) ([4]; Cohort 1 (Laparotomy)): 6.3 (0.48)
- Pain Intensity on Movement AUC 0-48 hours, LS Mean (SE) ([4]; Cohort 1 (Laparotomy)): 6.0 (0.49)
- Pain Intensity on Movement AUC 0-72 hours, LS Mean (SE) ([4]; Cohort 1 (Laparotomy)): 5.8 (0.51)
- Pain Intensity on Movement AUC 24-48 hours, LS Mean (SE) ([4]; Cohort 1 (Laparotomy)): 5.7 (0.56)
- Pain Intensity on Movement AUC 48-72 hours, LS Mean (SE) ([4]; Cohort 1 (Laparotomy)): 5.3 (0.60)
- Repeated Measures Pain Intensity on Movement, All Timepoints 0-72 hr, LS Mean (SE) ([4]; Cohort 1 (Laparotomy)): 5.9 (0.35)
- Total Morphine-equivalent Opioid Medication Use, MEDD 0-72 hours, Median (Q1, Q3) [4, 7]: 22.5 (12.5, 34.5) mg
- Pain Intensity on Movement AUC 0-24 hours, LS Mean (SE) [4, 7]: 4.8 (0.47)
- Pain Intensity on Movement AUC 0-48 hours, LS Mean (SE) [4, 7]: 4.4 (0.45)
- Pain Intensity on Movement AUC 0-72 hours, LS Mean (SE) [4, 7]: 3.9 (0.45)
- Pain Intensity on Movement AUC 24-48 hours, LS Mean (SE) [4, 7]: 4.0 (0.22)
- Pain Intensity on Movement AUC 48-72 hours, LS Mean (SE) [4, 7]: 2.8 (0.52)
- Repeated Measures Pain Intensity on Movement, All Timepoints 0-72 hr, LS Mean (SE) [4, 7]: 3.6 (0.32)
- At Least One Cardiovascular TEAE ([5]; Cohort 1): 7 (39%)
- At Least One Neurological TEAE ([5]; Cohort 1): 4 (22%)
- At Least One Non-Opioid TEAE ([5]; Cohort 1): 17 (94%)
- At Least One Serious TEAE ([5]; Cohort 1): 4 (22%)
- At Least One Serious and Related TEAE ([5]; Cohort 1): 0
- At Least One Severe and Related TEAE ([5]; Cohort 1): 0
- At Least One TEAE ([5]; Cohort 1): 17 (94%)
- At Least One TEAE Leading to Study Discontinuation ([5]; Cohort 1): 0
- At Least One Wound Infection REAE ([5]; Cohort 1): 2 (11%)
- Deaths ([5]; Cohort 1): 0
- TEAE Maximum Relationship to Study Drug: Not Related ([5]; Cohort 1): 13 (72%)
- TEAE Maximum Relationship to Study Drug: Related ([5]; Cohort 1): 4 (22%)
- TEAE Maximum Severity: Mild ([5]; Cohort 1): 2 (11%)
- TEAE Maximum Severity: Moderate ([5]; Cohort 1): 11 (61%)
- TEAE Maximum Severity: Severe ([5]; Cohort 1): 4 (22%)
- At Least One Cardiovascular TEAE ([5]; Cohort 2): 2 (10%)
- At Least One Neurological TEAE ([5]; Cohort 2): 10 (50%)
- At Least One Non-Opioid TEAE ([5]; Cohort 2): 19 (95%)
- At Least One Serious TEAE ([5]; Cohort 2): 1 (5%)
- At Least One Serious and Related TEAE ([5]; Cohort 2): 0
- At Least One Severe and Related TEAE ([5]; Cohort 2): 1 (5%)
- At Least One TEAE ([5]; Cohort 2): 20 (100%)
- At Least One TEAE Leading to Study Discontinuation ([5]; Cohort 2): 1 (5%)
- At Least One Wound Infection REAE ([5]; Cohort 2): 1 (5%)
- Deaths ([5]; Cohort 2): 0
- TEAE Maximum Relationship to Study Drug: Not Related ([5]; Cohort 2): 10 (50%)
- TEAE Maximum Relationship to Study Drug: Related ([5]; Cohort 2): 10 (50%)
- TEAE Maximum Severity: Mild ([5]; Cohort 2): 2 (10%)
- TEAE Maximum Severity: Moderate ([5]; Cohort 2): 13 (65%)
- TEAE Maximum Severity: Severe ([5]; Cohort 2): 5 (25%)
